The results in this text go back to patent US20140073651A1, “BENZAMIDE DERIVATIVES AS P2X7 RECEPTOR ANTAGONISTS” (Actelion Pharmaceuticals Ltd., priority 2011, published 2014).

The assay deals with T1, human recombinant P2X7 receptor (Homo sapiens, UniProt Q99572).
T1 construct: expressed in transfected cells
T1 sequence (Q99572 1-595): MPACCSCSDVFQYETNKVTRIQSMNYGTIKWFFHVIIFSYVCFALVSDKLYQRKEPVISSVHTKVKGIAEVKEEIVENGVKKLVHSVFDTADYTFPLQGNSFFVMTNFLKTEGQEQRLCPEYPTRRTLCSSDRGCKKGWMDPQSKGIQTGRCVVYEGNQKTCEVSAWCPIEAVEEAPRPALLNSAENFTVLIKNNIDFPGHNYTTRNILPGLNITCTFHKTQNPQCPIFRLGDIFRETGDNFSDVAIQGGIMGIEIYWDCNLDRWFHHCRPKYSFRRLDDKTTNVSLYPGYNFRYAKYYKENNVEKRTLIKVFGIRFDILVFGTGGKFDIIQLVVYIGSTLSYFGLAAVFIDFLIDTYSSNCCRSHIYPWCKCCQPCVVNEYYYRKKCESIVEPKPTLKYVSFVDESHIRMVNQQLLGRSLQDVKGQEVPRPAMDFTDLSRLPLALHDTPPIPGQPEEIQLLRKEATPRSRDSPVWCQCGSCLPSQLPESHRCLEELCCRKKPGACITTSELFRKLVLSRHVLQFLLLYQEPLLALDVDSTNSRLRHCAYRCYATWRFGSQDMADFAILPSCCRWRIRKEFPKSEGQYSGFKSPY
The assay is described as follows: YO-PRO assay (YO-PRO-1 uptake) in HEK cells stably expressing P2X7. It counts as cell-based. Conditions: HEK-293 cells expressing human recombinant P2X7 receptor; ATP 250 μM, 90 minutes; YO-PRO-1 fluorescence (FLIPR tetra); read-out: IC50 (antagonistic activity with respect to the P2X7 receptor). Here is the method:
Cell line generation was performed in general according to established molecular cloning protocols. Specifically, RNA was extracted from human whole blood using the Qiagen RNeasy kit (Qiagen, CH) according to the manufacturer's instructions. Subsequently cDNA was made (Superscript II, Invitrogen AG, CH) and the human P2X7 gene (genbank ref. BC011913) was amplified with the following primers: [NT] and [NT] The amplified sequence was subsequently ligated into a pcDNA3.1 (+) NotI, NheI digested plasmid. […] Following a 24 h exposure to DNA, cells were trypsinized and re-seeded at low density in the presence of 250 μg Geneticin. Geneticin resistant cells were then selected during two consecutive rounds of cloning by serial limiting dilution with visual inspection. Individual clones were screened for P2X7 expression by applying ATP and recording the resultant uptake of YO-[…]. Specific cell clones were chosen based on RNA and protein expression. HEK cells stably expressing P2X7 were used to screen drugs using the YO-[…] assay. Cells were grown to confluency in adherent culture at 37° C. in a humidified 5% CO2 incubator (split 1/5 every 3-4 days with DMEM, 10% FCS, 1% Penicillin/Streptomycin, 250 μg/ml Geneticin). Adherent cells were detached by incubation with Trypsine (1 ml per 165 cm^2 dish) for 2 minutes, then washed off with 10 ml PBS (without Mg^2+ and Ca^2+), and resuspended in DMEM, 10% FCS, 1% Penicillin/Streptomycin, no Geneticin. 10'000 cells per well (48 hours before the assay) or 25'000 cells per well (Vi-cell XR (Beckman Coulter) (24 hours before the assay) in 50 μl full medium were seeded on 384-well black-wall, clear bottom plates, that were coated before with 10 μl per well Poly-L-Lysine, incubated for 30-60 minutes at 37° C. and washed once with PBS. Medium was removed from cells and 50 μl of assay buffer containing 0.5 μM YO-[…] was added into the wells. Solutions of antagonist compounds were prepared by serial dilutions of a 10 mM DMSO solution of the antagonist into PBS using a BioMek (Beckman Coulter). Each concentration was performed in duplicate. […] During this time period, four time points were taken. Each time point comprised the average of several measurements made within a few seconds. […] The FLIPR tetra was equipped with Molecular Devices Screen Works system control software to define and run experimental protocols. […] For IC50 measurements the maximum intensity is plotted against the concentration of compound to determine IC50 values.
What is called IC50 is the concentration that inhibits the measured activity by half. On to `CCN(c1ccc(Cl)c(C(=O)NCC2(O)CCCCC2)c1)c1cc[nH]c(=O)n1` [Example 21, 2-Chloro-5-[ethyl-(2-oxo-1,2-dihydro-pyrimidin-4-yl)-amino]-N-(1-hydroxy-cyclohexylmethyl)-benzamide], for which the IC50 was found to be 17 nM.

Turning to `CCCN(c1ccc(Cl)c(C(=O)NCC2(O)CCCCC2)c1)c1ccnc(Cl)n1` [Example 22, 2-Chloro-5-[(2-chloro-pyrimidin-4-yl)-propyl-amino]-N-(1-hydroxy-cyclohexylmethyl)-benzamide], the IC50 turned out to be 267 nM.

For the compound `CCCN(c1ccc(Cl)c(C(=O)NCC2(O)CCCCC2)c1)c1cc[nH]c(=O)n1` [Example 23, 2-Chloro-N-(1-hydroxy-cyclohexylmethyl)-5-[(2-oxo-1,2-dihydro-pyrimidin-4-yl)-propyl-amino]-benzamide], the IC50 was 18 nM.

Consider `CC(C)N(c1ccc(Cl)c(C(=O)NCC2(O)CCCCC2)c1)c1ccnc(Cl)n1` [Example 24, 2-Chloro-5-[(2-chloro-pyrimidin-4-yl)-isopropyl-amino]-N-(1-hydroxy-cyclohexylmethyl)-benzamide], for which the IC50 came to 236 nM.

Regarding `CC(C)N(c1ccc(Cl)c(C(=O)NCC2(O)CCCCC2)c1)c1cc[nH]c(=O)n1` [Example 25, 2-Chloro-N-(1-hydroxy-cyclohexylmethyl)-5-[isopropyl-(2-oxo-1,2-dihydro-pyrimidin-4-yl)-amino]-benzamide], the IC50 turned out to be 109 nM.

In the case of `CC(C)CN(c1ccc(Cl)c(C(=O)NCC2(O)CCCCC2)c1)c1ccnc(Cl)n1` [Example 26, 2-Chloro-5-[(2-chloro-pyrimidin-4-yl)-isobutyl-amino]-N-(1-hydroxy-cyclohexylmethyl)-benzamide], the IC50 turned out to be 317 nM.

As to `CC(C)CN(c1ccc(Cl)c(C(=O)NCC2(O)CCCCC2)c1)c1cc[nH]c(=O)n1` [Example 27, 2-Chloro-N-(1-hydroxy-cyclohexylmethyl)-5-[isobutyl-(2-oxo-1,2-dihydro-pyrimidin-4-yl)-amino]-benzamide], the IC50 stood at 30 nM.

Regarding `COc1nccc(N(CC(C)C)c2ccc(Cl)c(C(=O)NCC3(O)CCCCC3)c2)n1` [Example 28, 2-Chloro-N-(1-hydroxy-cyclohexylmethyl)-5-[isobutyl-(2-methoxy-pyrimidin-4-yl)-amino]-benzamide], the IC50 amounted to 353 nM.

For the compound `O=C(NCC1(O)CCCCC1)c1cc(N(Cc2ccccc2)c2ccnc(Cl)n2)ccc1Cl` [Example 29, 5-[Benzyl-(2-chloro-pyrimidin-4-yl)-amino]-2-chloro-N-(1-hydroxy-cyclohexylmethyl)-benzamide], the IC50 amounted to 456 nM.

Consider `O=C(NCC1(O)CCCCC1)c1cc(N(Cc2ccccc2)c2cc[nH]c(=O)n2)ccc1Cl` [Example 30, 5-[Benzyl-(2-oxo-1,2-dihydro-pyrimidin-4-yl)-amino]-2-chloro-N-(1-hydroxy-cyclohexylmethyl)-benzamide], for which the IC50 was 181 nM.

In the case of `COc1nccc(N(Cc2ccccc2)c2ccc(Cl)c(C(=O)NCC3(O)CCCCC3)c2)n1` [Example 31, 5-[Benzyl-(2-methoxy-pyrimidin-4-yl)-amino]-2-chloro-N-(1-hydroxy-cyclohexylmethyl)-benzamide], the IC50 was found to be 566 nM.

Take `COCCN(c1ccc(Cl)c(C(=O)NCC2(O)CCCCC2)c1)c1ccnc(Cl)n1` [Example 32, 2-Chloro-5-[(2-chloro-pyrimidin-4-yl)-(2-methoxy-ethyl)-amino]-N-(1-hydroxy-cyclohexylmethyl)-benzamide]: the IC50 worked out at 531 nM.

Regarding `COCCN(c1ccc(Cl)c(C(=O)NCC2(O)CCCCC2)c1)c1cc[nH]c(=O)n1` [Example 33, 2-Chloro-N-(1-hydroxy-cyclohexylmethyl)-5-[(2-methoxy-ethyl)-(2-oxo-1,2-dihydro-pyrimidin-4-yl)-amino]-benzamide], the IC50 turned out to be 183 nM.

Regarding `COCCN(c1ccc(Cl)c(C(=O)NCC2(O)CCCCC2)c1)c1ccnc(OC)n1` [Example 34, 2-Chloro-N-(1-hydroxy-cyclohexylmethyl)-5-[(2-methoxy-ethyl)-(2-methoxy-pyrimidin-4-yl)-amino]-benzamide], the half-inhibitory concentration (IC50) came to 860 nM.

As for `O=C(NCC1(O)CCCCC1)c1cc(N(CC2CCCC2)c2ccnc(Cl)n2)ccc1Cl` [Example 35, 2-Chloro-5-[(2-chloro-pyrimidin-4-yl)-cyclopentylmethyl-amino]-N-(1-hydroxy-cyclohexylmethyl)-benzamide], the IC50 was 367 nM.

Turning to `O=C(NCC1(O)CCCCC1)c1cc(N(CC2CCCC2)c2cc[nH]c(=O)n2)ccc1Cl` [Example 36, 2-Chloro-5-[cyclopentylmethyl-(2-oxo-1,2-dihydro-pyrimidin-4-yl)-amino]-N-(1-hydroxy-cyclohexylmethyl)-benzamide], the IC50 was determined as 185 nM.

In the case of `O=C(NCC1(O)CCCCC1)c1cc(N(CCOc2ccccc2)c2ccnc(Cl)n2)ccc1Cl` [Example 38, 2-Chloro-5-[(2-chloro-pyrimidin-4-yl)-(2-phenoxy-ethyl)-amino]-N-(1-hydroxy-cyclohexylmethyl)-benzamide], the IC50 was 764 nM.

On to `O=C(NCC1(O)CCCCC1)c1cc(N(CCOc2ccccc2)c2cc[nH]c(=O)n2)ccc1Cl` [Example 39, 2-Chloro-N-(1-hydroxy-cyclohexylmethyl)-5-[(2-oxo-1,2-dihydro-pyrimidin-4-yl)-(2-phenoxy-ethyl)-amino]-benzamide], for which the IC50 turned out to be 378 nM.

Turning to `COc1nccc(N(CCOc2ccccc2)c2ccc(Cl)c(C(=O)NCC3(O)CCCCC3)c2)n1` [Example 40, 2-Chloro-N-(1-hydroxy-cyclohexylmethyl)-5-[(2-methoxy-pyrimidin-4-yl)-(2-phenoxy-ethyl)-amino]-benzamide], the IC50 is 588 nM.

As to `C[C@@H](NC(=O)c1cc(N(C)c2ccnc(Cl)n2)ccc1Cl)C1CCCCC1` [Example 41, 2-Chloro-5-[(2-chloro-pyrimidin-4-yl)-methyl-amino]-N—((R)-1-cyclohexyl-ethyl)-benzamide], the IC50 came out at 384 nM.

Consider `C[C@@H](NC(=O)c1cc(N(C)c2cc[nH]c(=O)n2)ccc1Cl)C1CCCCC1` [Example 42, 2-Chloro-N—((R)-1-cyclohexyl-ethyl)-5-[methyl-(2-oxo-1,2-dihydro-pyrimidin-4-yl)-amino]-benzamide], for which the IC50 was determined as 38 nM.

`CN(c1ccc(Cl)c(C(=O)N[C@H](CO)C2CCCCC2)c1)c1ccnc(Cl)n1` [Example 43, 2-Chloro-5-[(2-chloro-pyrimidin-4-yl)-methyl-amino]-N—((S)-1-cyclohexyl-2-hydroxy-ethyl)-benzamide]: the IC50 stood at 136 nM.

In the case of `CN(c1ccc(Cl)c(C(=O)N[C@H](CO)C2CCCCC2)c1)c1cc[nH]c(=O)n1` [Example 44, 2-Chloro-N—((S)-1-cyclohexyl-2-hydroxy-ethyl)-5-[methyl-(2-oxo-1,2-dihydro-pyrimidin-4-yl)-amino]-benzamide], the IC50 was determined as 33 nM.

Consider `CN(c1ccc(Cl)c(C(=O)NCC2(O)CCCCCC2)c1)c1ccnc(Cl)n1` [Example 45, 2-Chloro-5-[(2-chloro-pyrimidin-4-yl)-methyl-amino]-N-(1-hydroxy-cycloheptylmethyl)-benzamide], for which the IC50 turned out to be 89 nM.

`CN(c1ccc(Cl)c(C(=O)NCC2(O)CCCCCC2)c1)c1cc[nH]c(=O)n1` [Example 46, 2-Chloro-N-(1-hydroxy-cycloheptylmethyl)-5-[methyl-(2-oxo-1,2-dihydro-pyrimidin-4-yl)-amino]-benzamide]: the IC50 is 21 nM.

For `CN(c1ccc(Cl)c(C(=O)NCC2(O)CCCCCCC2)c1)c1ccnc(Cl)n1` [Example 47, 2-Chloro-5-[(2-chloro-pyrimidin-4-yl)-methyl-amino]-N-(1-hydroxy-cyclooctylmethyl)-benzamide], the IC50 was found to be 116 nM.
